# Source: patent US8946439B2, “Amide compounds, compositions and uses thereof” (Evotec AG, priority 2008, dated 2015)
# pIC50: −log10 of the molar value. Where two headings read alike, the source gives them in different places.
# Columns and labels:
# [1] = biological target: T1, hP2X2/3H (Homo sapiens, UniProt P56373+Q9UBL9); test: Calcium uptake assay (P2X antagonist assay), P2X2/3 heteromer; type: cell-based; settings: hP2X2/3H; for pIC50: Ca influx (calcium uptake assay), read-out: IC50 hP2X2/3H; for IC50: calcium uptake assay, read-out: IC50 hP2X2/3H (nM), Ca Influx
# T1 construct: expressed in transfected cells; host or cells: e.g. HEK293 or 1321N1
# T1 sequence (Q9UBL9 1-471): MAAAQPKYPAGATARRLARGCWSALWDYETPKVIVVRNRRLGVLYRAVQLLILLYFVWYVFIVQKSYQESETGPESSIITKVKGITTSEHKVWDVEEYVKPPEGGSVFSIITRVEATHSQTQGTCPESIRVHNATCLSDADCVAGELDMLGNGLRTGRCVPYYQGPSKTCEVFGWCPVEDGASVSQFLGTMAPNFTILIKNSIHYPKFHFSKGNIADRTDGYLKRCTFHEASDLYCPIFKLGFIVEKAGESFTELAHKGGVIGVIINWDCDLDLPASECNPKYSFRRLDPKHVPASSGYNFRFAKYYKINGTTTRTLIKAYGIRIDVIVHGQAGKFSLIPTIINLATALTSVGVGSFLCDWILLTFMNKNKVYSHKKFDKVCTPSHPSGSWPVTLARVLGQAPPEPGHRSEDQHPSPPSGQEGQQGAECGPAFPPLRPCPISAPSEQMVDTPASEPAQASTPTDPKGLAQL
# T1 sequence (P56373 1-397): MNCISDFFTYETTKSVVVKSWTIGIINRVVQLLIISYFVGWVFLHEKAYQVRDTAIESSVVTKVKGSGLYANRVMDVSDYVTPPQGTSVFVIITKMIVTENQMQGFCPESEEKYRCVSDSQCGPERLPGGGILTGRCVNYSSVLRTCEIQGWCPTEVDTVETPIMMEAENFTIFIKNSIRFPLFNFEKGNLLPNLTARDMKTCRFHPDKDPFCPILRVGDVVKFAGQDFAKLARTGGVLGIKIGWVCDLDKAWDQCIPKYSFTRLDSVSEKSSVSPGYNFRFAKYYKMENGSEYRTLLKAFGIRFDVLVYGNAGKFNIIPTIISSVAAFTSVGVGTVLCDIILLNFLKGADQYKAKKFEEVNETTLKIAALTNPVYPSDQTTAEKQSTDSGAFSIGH
# Method in brief: (§1)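 Stably or transiently transfected HEK293 or 1321N1 cells; the heteromer is made by adding P2X3 to a P2X2-stable line, with heteromer function isolated pharmacologically. The peak-minus-baseline FLIPR calcium signal gives % inhibition and a 4-parameter-logistic IC50.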
# [2] = biological target: T2, hP2X3 (Homo sapiens, UniProt P56373); test: Calcium uptake assay (P2X antagonist assay), P2X3 homomer; type: cell-based; settings: hP2X3; for pIC50: Ca influx (calcium uptake assay), read-out: IC50 hP2X3; for IC50: calcium uptake assay, read-out: IC50 hP2X3 (nM), Ca Influx
# T2 construct: expressed in transfected cells; host or cells: e.g. HEK293 or 1321N1
# T2 sequence (P56373 1-397): T1 sequence (P56373 1-397)
# Method in brief: as §1
pIC50 [1],pIC50 [2],IC50 [1] [nM],IC50 [2] [nM],Compound
> 7.00,6.30 to 7.00,,,"Cc1ccc(-c2cc(C(=O)N[C@H](C)c3ccc(C)nc3)cc(C(O)c3ccccc3)c2)cc1 (stereo partly drawn) [Compound 227, 5-(Hydroxy(phenyl)methyl)-4′-methyl-N—((R)-1-(6-methylpyridin-3-yl)ethyl)biphenyl-3-carboxamide]"
> 7.00,6.30 to 7.00,,,Cc1ccc(-c2cc(Oc3ccccn3)cc(C(=O)N[C@H](C)c3cnc(C)nc3)c2)cc1 [Compound 243]
6.30 to 7.00,> 7.00,,,"Cc1ccc(-c2cc(OCC(O)CO)cc(C(=O)N[C@H](C)c3ccc(C)nc3)c2)c(C#N)c1 (stereo partly drawn) [Compound 315, 2′-Cyano-5-(2,3-dihydroxypropoxy)-4′-methyl-N—((R)-1-(6-methylpyridin-3-yl)ethyl)biphenyl-3-carboxamide]"
6.30 to 7.00,> 7.00,,,"Cc1ccc(-c2cc(OCC3CNCCO3)cc(C(=O)N[C@H](C)c3ccc(C)nc3)c2)c(C#N)c1 (stereo partly drawn) [Compound 324, 2′-Cyano-4′-methyl-N—((R)-1-(6-methylpyridin-3-yl)ethyl)-5-(morpholin-2-ylmethoxy)biphenyl-3-carboxamide]"
,,> 1000,> 1000,Cc1ccc(CNC(=O)c2cc(-c3ccc(C)c(C)c3)cc(S(C)(=O)=O)c2)cn1 [Compound 121]
> 7.00,> 7.00,,,Cc1ccc(-c2cc(Oc3nc(C)cs3)cc(C(=O)N[C@H](C)c3ccc(C)nc3)c2)nc1 [Compound 374]
> 7.00,> 7.00,,,Cc1ccc(-c2cc(C(=O)N[C@H](C)c3ccc(C)nc3)cc(C(O)c3cncn3C)c2)cc1 (stereo partly shown) [Compound 330]
,,> 1000,100 to 500,"Cc1ccc(-c2cc(S(=O)(=O)N3CCCC3)cc(C(=O)N[C@H](C)c3cnc(C)nc3)c2C)cc1 [Compound 65, (R)-2,4′-Dimethyl-N-(1-(2-methylpyrimidin-5-yl)ethyl)-5-(pyrrolidin-1-ylsulfonyl)biphenyl-3-carboxamide]"
,,100 to 500,< 100,Cc1ccc(-c2cc(C(=O)NCc3cnc(C)nc3)cc(C(=O)N3CCOCC3)c2)cc1 [Compound 24]
,,100 to 500,100 to 500,Cc1ccc(-c2cc(C#N)cc(C(=O)NCc3ccc(C)nc3)c2)cc1 [Compound 153]
6.30 to 7.00,6.30 to 7.00,,,Cc1ccc(-c2cc(Oc3nc(-c4ccccc4)cs3)cc(C(=O)N[C@H](C)c3ccc(C)nc3)c2)nc1 [Compound 375]
,,< 100,< 100,"Cc1ccc(-c2cc(C(=O)NCc3ccc(C(F)(F)F)nc3)cc(C(=O)N3CC(O)C3)c2)cc1 [Compound 130, 5-(3-Hydroxyazetidine-1-carbonyl)-4′-methyl-N-((6-(trifluoromethyl)pyridin-3-yl)methyl)biphenyl-3-carboxamide]"
6.30 to 7.00,> 7.00,,,Cc1ccc(-c2cc(C(=O)N[C@H](C)c3cnc(C)nc3)cc(S(C)(=O)=O)c2)nc1 [Compound 322]
,,> 1000,100 to 500,Cc1ccc(-c2cc(C(=O)N[C@H](C)c3cnn4c3COCC4)cc(C(=O)N3CCCC3)c2)cc1 [Compound 110]
6.30 to 7.00,> 7.00,,,"COc1cc(C(=O)N[C@H](C)c2cnc(C)nc2)cc(-c2ccc(C)cn2)c1 [Compound 225, (R)-3-Methoxy-5-(5-methylpyridin-2-yl)-N-(1-(2-methylpyrimidin-5-yl)ethyl)benzamide]"
,,100 to 500,< 100,COc1ncc(CNC(=O)c2cc(-c3ccc(C)cc3)cc(S(C)(=O)=O)c2)cn1 [Compound 115]
> 7.00,> 7.00,,,COCC(CO)Oc1cc(C(=O)N[C@H](C)c2ccc(C)nc2)cc(-c2ccc(C)cc2)c1 (stereo partly shown) [Compound 323]
> 7.00,> 7.00,,,Cc1ccc(-c2cc(C(=O)N[C@H](C)c3ccc(C)nc3)cc(C(O)c3nccs3)c2)c(C#N)c1 (stereo partly shown) [Compound 294]
6.30 to 7.00,> 7.00,,,Cc1ccc(-c2cc(Oc3ncccn3)cc(C(=O)N[C@H](C)c3ccc(C)nc3)c2)c(C#N)c1 [Compound 246]
,,100 to 500,100 to 500,Cc1ccc(-c2cc(C(=O)N[C@H](C)c3cnc(C)c(Cl)c3)cc(S(C)(=O)=O)c2)cc1 [Compound 149]
